Source: patent US8617819B2, “Polymers for analyte detection” (Massachusetts Institute of Technology, priority 2004, dated 2013)

Tests used:
sheep erythrocytes = test: hemagglutination inhibition of sheep erythrocytes; type: cell-based
[1] = test system: mannose binding (wild type) E. coli strain; test: fluorescent staining / clustering of mannose binding (wild type) E. coli; type: cell-based; settings: 30 minutes, OD600 1.0, washed twice with PBS
Experimental: (§1) Two bacterial strains that differed only in their mannose binding properties were used to assess whether the mannosylated PPE 22a could fluorescently stain E. coli. In addition to a strain that binds to mannose, a second strain that is mutated in its mannose binding protein (FimH) to abolish mannose binding was used. The non-functionalized polymer 21, the mannosylated polymer 22a, and 2′-fluorescein aminoethyl mannoside were individually incubated with these bacterial strains. After incubating a 1 ml bacterial suspension at an OD600 of 1.0 with the appropriate polymer or dye labeled mannose for 30 minutes, the suspensions were centrifuged to pellet the cells. The supernatant solution containing unbound polymer or dye labeled mannose was discarded and the cells were washed twice with phosphate buffered saline (PBS, pH 7.2). The bacteria were then resuspended in PBS. […]
(§2) Binding of mannosylated polymer to bacteria was imaged using laser scanning confocal microscopy and fluorescence microscopy. […]
(§3) FIGS. 8A-8B illustrate laser scanning confocal microscopy images. […] FIG. 8D is a conventional fluorescence spectra of polymer 22a in PBS (solid line) and normalized fluorescence spectra of a bacterial cluster obtained using confocal microscopy (dotted line).

[2] = test system: E. coli strain mutated in its mannose binding protein (FimH); test: fluorescent staining / clustering of FimH mutant (non-mannose binding) E. coli; type: cell-based; settings: 30 minutes, OD600 1.0, washed twice with PBS
Experimental: as §1, §2, §3

[3] = Stern-Volmer quenching of polymer 1 by streptavidin-free dyes; type: binding; settings: free dye added to polymer 1, 50 mM Tris buffer pH 7.4
Experimental: This mechanism generally requires fairly close proximity between the donor and acceptor chromophores. To study these interactions, the Stern-Volmer (KSV) quenching constants were determined from fluorescence emission and lifetime measurements in 50 mM Tris buffer at pH 7.4. Upon the addition of the streptavidin-free fluorescent dyes (fluorescein, RhB, and sulforhodamine 101, the Texas Red™ parent dye) to polymer 1, the apparent KSV values were determined to be 26,300 M^−1, 91,800 M^−1 and 97,900 M^−1, respectively. […] The dyes therefore may have an inherent affinity for the conjugated polymer backbone. A more planar conformation and greater hydrophobic character for Texas Red™, compared to RhB and fluorescein, may permit better stacking and orbital interaction with the CP backbone, allowing for greater DET. In the case of dye-labeled streptavidin, biological recognition first may bring the dyes into closer proximity with the polymer. Conformational and hydrophobic characteristics of the dyes then may tailor the extent of orbital mixing with the polymer: the flatter Texas Red™ may interact more intimately with the planar conjugated polymer backbone then the other dyes. This may favor DET and can explain the better ET that was observed, even at decreased spectral overlap between the CP donor and dye acceptor.

[4] = thin film (solid phase) energy transfer / dye association assay; type: binding; settings: for association of free dye with polymer thin films: polymers 3 and 4, thin films
Experimental: Thin film experiments with polymers 3 and 4 were also conducted in this example. Incubation with the dye-labeled streptavidin was performed in the presence of Triton X-100, a non-ionic detergent, to diminish non-specific binding. […] The spectra was scaled to 454 nm.
To perform energy transfer assays in solid phase, the following general protocol was used. The microscope coverslips were pretreated in 1,1,1,3,3,3-hexamethyldisilazane. The polymer solutions at 1 mg/ml in chloroform were spin-cast onto microscope coverslips at a spin rate of 3000 rpm for 1 minute. The coverslips were put under vacuum for 2 h, then were incubated in a solution of dye labeled streptavidin or dye for 1 h. The coverslips were then washed with deionized water, blotted dry and dried under vacuum for a minimum of 5 h. The excitation wavelength at 400 nm was chosen, and the emission spectrum was taken from 415 nm-700 nm.

| Molecule | INHIBITING DOSE (sheep erythrocytes) | apparent Stern-Volmer quenching constant KSV [3] | association of free dye with polymer thin films [4] | further results |
| --- | --- | --- | --- | --- |
| 2′-Fluorescein aminoethyl mannoside | 0.01 M |  |  | binding / fluorescent labelling of E. coli after incubation, pelleting and washing [1]: Neither polymer 21 nor the 2′-fluorescein aminoethyl mannoside appeared to bind either E. coli strain; binding / fluorescent labelling of E. coli after incubation, pelleting and washing [2]: Neither polymer 21 nor the 2′-fluorescein aminoethyl mannoside appeared to bind either E. coli strain |
| NCCOC1O[C@H](CO)[C@@H](O)[C@H](O)[C@@H]1O (stereo partly drawn) [2′-Aminoethyl mannoside] | 0.01 M |  |  |  |
| CCN(CC)c1ccc2c(-c3ccccc3C(=O)O)c3ccc(=[N+](CC)CC)cc-3oc2c1.[Cl-] [RhB, rhodamine B] |  | 91,800 M^−1 | associated with both 3 and 4 |  |
| O=S(=O)([O-])c1cc(S(=O)(=O)O)ccc1C1=c2cc3c4c(c2Oc2c1cc1c5c2CCCN5CCC1)CCC[N+]=4CCC3 [sulforhodamine 101] |  | 97,900 M^−1 | associated with neither |  |
| RhB-strept: rhodamine B-labeled streptavidin, about 4.6 dyes/protein |  |  |  | thin film ET of dye-labeled streptavidin ([4]; polymers 3 and 4, in the presence of Triton X-100): exhibited better ET than T-red-strept |
